# Earlier results as cited in patent publication US9308182B2 (TEVA PHARMACEUTICAL INDUSTRIES, LTD., priority 2012, dated 2016).
# Conditions: non specific MAO inhibitor; all the treatment groups; cited from earlier work
smiles,measurement,value
O=C(CCNNC(=O)c1ccncc1)NCc1ccccc1 [nialamide],effect on blood pressure response to tyramine,severe increase in blood pressure
